Measured values from paper PMC9926234, “Iterative computational design and crystallographic screening identifies potent inhibitors targeting the Nsp3 macrodomain of SARS-CoV-2” (Proceedings of the National Academy of Sciences of the …, 2023).
Where “and” joins values, the source holds several entries; their conditions need not be identical. Equal entries are not always repeated. Where two headings read alike, the source gives them in different places.

Tests used:
SARS-CoV-2 NSP3 Mac1 [1] = target: T1, SARS-CoV-2 NSP3 Mac1 (Severe acute respiratory syndrome coronavirus 2, UniProt P0DTD1); assay type: binding; parameters: contains a conserved macrodomain enzyme (Mac1)
Method in brief: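 Differential scanning fluorimetry using 5 µM Fluorescent Yellow dye in place of SYPRO Orange. Compounds run in triplicate at seven two-fold dilutions from 1,000 or 100 μM, with ΔTma taken against a DMSO control in the same plate region. Dose-response significance assessed by Spearman's coefficient between concentration and ΔTma.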

MacroD2 = target: T2, MacroD2 (Homo sapiens, UniProt A1Z1Q3); assay: adapted HTRF-based peptide displacement assay (off-target); assay type: binding
T2 construct: MacroD2_HTRF; HTRF assay; pET22b(+); His6, TEV, Avi; made in house
T2 sequence (A1Z1Q3 with tags, fused parts or gaps): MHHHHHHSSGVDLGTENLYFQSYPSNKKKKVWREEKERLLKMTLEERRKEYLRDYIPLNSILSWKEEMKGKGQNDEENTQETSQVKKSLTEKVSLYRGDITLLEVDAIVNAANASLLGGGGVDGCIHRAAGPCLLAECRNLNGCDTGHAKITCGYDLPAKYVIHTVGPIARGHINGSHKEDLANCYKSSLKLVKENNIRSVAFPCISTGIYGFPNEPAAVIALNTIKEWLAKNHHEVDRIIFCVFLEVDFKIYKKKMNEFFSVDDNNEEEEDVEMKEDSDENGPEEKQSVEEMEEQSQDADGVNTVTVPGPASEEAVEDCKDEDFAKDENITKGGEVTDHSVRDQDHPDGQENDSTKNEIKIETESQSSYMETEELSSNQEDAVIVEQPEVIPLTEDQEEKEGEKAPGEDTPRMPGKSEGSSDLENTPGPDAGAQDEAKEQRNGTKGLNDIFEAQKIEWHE

TARG1 = target: T3, TARG1 (Homo sapiens, UniProt Q9Y530); assay: as above; assay type: binding; details: for binding / activity against TARG1: compound at 160 µM
T3 construct: Targ1_HTRF; HTRF assay; pET22b(+); His6, TEV; 1-153; made in house
T3 sequence (Q9Y530 with tags, fused parts or gaps): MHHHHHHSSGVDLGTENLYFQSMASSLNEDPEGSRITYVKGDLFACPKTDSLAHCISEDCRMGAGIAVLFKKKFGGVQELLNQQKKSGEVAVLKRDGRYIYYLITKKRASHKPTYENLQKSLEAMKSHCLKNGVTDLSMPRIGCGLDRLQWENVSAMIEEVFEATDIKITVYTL

SARS-CoV-2 NSP3 Mac1 [2] = target: T1, SARS-CoV-2 NSP3 Mac1; assay type: binding; details: for 1-BDC (PanDDA): 1 minus background density correction; for 1-BDC (PanDDA) / Refined occupancy: crystal soaking of Mac1; for Refined occupancy: ligand occupancy after refinement (phenix.refine)
SARS-CoV-2 NSP3 Mac1 [3] = target: T1, SARS-CoV-2 NSP3 Mac1; assay: biochemical; assay type: binding
MDR1-MDCKII cells = assay: MDR1-MDCK II cell permeability; details: MDR1-MDCKII cells
Experimental: (§1) Permeability of compounds was assessed using canine MDR1 knockout and human MDR1 knockin MDCKII cells (MDR1-MDCKII) (Sigma-Aldrich, MTOX1303) in confluent monolayers expressing P-glycoprotein (P-gp) at Enamine biological services Bienta LTD (Kyiv, Ukraine).
(§2) Canine MDR1 knockout, human MDR1 knockin MDCKII cell (MDR1-MDCKII) (Sigma-Aldrich,
(§3) MTOX1303) suspension (400 μl) was added to each well of high throughput screening multiwell
(§4) insert system plates. Test compounds were prepared as 20 mM DMSO stocks. The test compound
(§5) (300 µl) was dissolved in transport buffer (9.5 g/l Hanks’ balanced salt solution and 0.35 g/l NaHCO3
(§6) wells whereas 1000 µl of transport buffer was added to transport analysis plate wells in order to
(§7) determine apical (A) to basolateral (B) transport. Basolateral to apical transport was measured by
(§8) adding 1000 µl of the test compound solution into the transport analysis plate wells whereas 300
(§9) µl of buffer was used to fill the filter plate wells.
(§10) were taken from the donor and receiver compartments for LC-MS/MS analysis. Samples were
(§11) mixed with acetonitrile followed by protein sedimentation by centrifugation at 1000 rpm for 10 min.
(§12) HPLC coupled with tandem mass spectroscopy was performed using the Shimadzu Prominence
(§13) HPLC system coupled with the API 5000 (PE Sciex) spectrometer. Both the positive and negative
(§14) ion modes of the TurboIonSpray ion source were used. The apparent permeability (Papp) was
(§15) computed using the equation 1, where VA is the volume of transport buffer in acceptor wel, Area is
(§16) the surface area of the insert, Time is the assay time, [drug]acc is the peak area of test compound
(§17) in acceptor well, and [drug]initial,d is the initial amount of the test compound in a donor well.

SARS-CoV-2 NSP3 Mac1 [4] = target: T1, SARS-CoV-2 NSP3 Mac1; assay: biochemical; parameters: HTRF ADPr-peptide displacement assay with Mac1, dose-response IC50; details: read-out: IC50 [µM] / 0.5, 1.2, 1.4
SARS-CoV-2 NSP3 Mac1 [5] = target: T1, SARS-CoV-2 NSP3 Mac1; parameters: contains a conserved macrodomain enzyme (Mac1); Differential scanning fluorimetry of Mac1, maximum thermal upshift; details: maximum shift over tested concentrations; binder
[6] = test system: P-glycoprotein (human MDR1); assay: in vitro; details: dog, MDCK-MDR1, pH 7.4, permeability, MDR1-MDCKII
Experimental: as §1, §2, §3, §4, §5, §6, §7, §8, §9, §10, §11, §12, §13, §14, §15, §16, §17

SARS-CoV-2 NSP3 Mac1 [7] = assay: Overall hit call (binding in crystallographic soaking or the HTRF-based binding assay)
Excerpt: Supplement pnas.2212931120.sd01.xlsx, sheet "Compound Summary" | column: HIT*

SARS-CoV-2 NSP3 Mac1 [8] = target: T1, SARS-CoV-2 NSP3 Mac1; parameters: contains a conserved macrodomain enzyme (Mac1); differential scanning fluorimetry, maximum thermal upshift; details: binder

O=C(O)C1(F)CN(c2ncnc3[nH]c4cc(F)ccc4c23)CC12CCC2 (stereo not shown) [LL1_0023]
Spearman est (compound concentration vs apparent Tm) (SARS-CoV-2 NSP3 Mac1 [1]; DSF dose responsiveness, 1 µM nsp3 mac1, adj p given): 0.98
DSF max dTma (SARS-CoV-2 NSP3 Mac1 [1]; maximal thermal upshift): 4.53 ˚C
displacement of the ADPr-conjugated peptide (off-target activity) (MacroD2; compound at 1 mM): 50%
displacement of the ADPr-conjugated peptide (off-target activity) (TARG1; compound at 50 µM): active
displacement of the ADPr-conjugated peptide (off-target activity) (TARG1; compound at 1 mM): 50%
1-BDC (SARS-CoV-2 NSP3 Mac1 [2]; PanDDA 1-BDC value of the event, crystal soak, compound concentration 100 mM, per dataset): 0.28
1-BDC (PanDDA) (SARS-CoV-2 NSP3 Mac1 [2]; PanDDA event map): 0.16
PanDDA hit? (SARS-CoV-2 NSP3 Mac1 [2]; crystal soak, compound concentration 100 mM, per dataset): TRUE
Modeled? (SARS-CoV-2 NSP3 Mac1 [2]; ligand modeled from this dataset, compound concentration 100 mM): TRUE
Refined occupancy (SARS-CoV-2 NSP3 Mac1 [2]): 32
HIT* (SARS-CoV-2 NSP3 Mac1 [2]; true hit = binding in crystallographic soaking or the HTRF-based binding assay): Y
IC50 (SARS-CoV-2 NSP3 Mac1 [3]; HTRF ADPr-peptide displacement from SARS-CoV-2 Mac1, read-out: IC50): 6 to 10 µM and 5.8 to 10.9 µM
IC50 (SARS-CoV-2 NSP3 Mac1 [3]; HTRF, read-out: IC50): 5.8 µM and 10.9 µM
Ki (SARS-CoV-2 NSP3 Mac1 [3]; Ki estimation from HTRF-derived IC50, Cheng-Prusoff, peptide 400nM, Kd 2.68µM, read-out: Ki***): 5 µM and 9.5 µM
permeability relative to the Z8539 scaffold (MDR1-MDCKII cells): 3 fold

O=C1COc2cc(C(=O)NC3c4cccc(O)c4CC3C(=O)O)ccc2N1 (stereo not shown) [Z8539_0014, 8539_0014]
IC50 (SARS-CoV-2 NSP3 Mac1 [4]): 27.9 µM
DSF max dTma (SARS-CoV-2 NSP3 Mac1 [5]): 1.83 °C

O=C(O)[C@H]1CCCC[C@H]1Nc1ncnc2[nH]c3cc(F)ccc3c12 [LRH-0021]
Papp ([6]; apical to basal): 12 ×10⁻⁶ cm/s
Papp ([6]; basal to apical): 9.1 ×10⁻⁶ cm/s
HIT* (SARS-CoV-2 NSP3 Mac1 [7]): Y
binding / activity against TARG1 (TARG1): showed binding
1-BDC (PanDDA) (SARS-CoV-2 NSP3 Mac1 [2]; PanDDA event map): 0.12
1-BDC (SARS-CoV-2 NSP3 Mac1 [2]; PanDDA event map, crystal soak, Compound_concentration 100 mM, Echo_dispense_volume 40 nl): 0.05
1-BDC (SARS-CoV-2 NSP3 Mac1 [2]; PanDDA event map, crystal soak, Compound_concentration 100 mM, Echo_dispense_volume 80 nl): 0.12
PanDDA hit? (SARS-CoV-2 NSP3 Mac1 [2]; crystal soak, Compound_concentration 100 mM, Echo_dispense_volume 40 nl, PanDDA run (background map) dmso_34, nohits_35 or nohits_62): TRUE
PanDDA hit? (SARS-CoV-2 NSP3 Mac1 [2]; crystal soak, Compound_concentration 100 mM, Echo_dispense_volume 80 nl, PanDDA run dmso_34): TRUE
Modeled? (SARS-CoV-2 NSP3 Mac1 [2]; ligand modeled, crystal soak, Compound_concentration 100 mM, Echo_dispense_volume 80 nl): TRUE
Refined occupancy (SARS-CoV-2 NSP3 Mac1 [2]): 24
binding to Mac1 in the HTRF assay, result in words (SARS-CoV-2 NSP3 Mac1 [3]): equipotent to LRH-0003
IC50 (SARS-CoV-2 NSP3 Mac1 [3]; IC50 [µM], HTRF ADPr-conjugated peptide displacement): 1.7 µM
Ki (SARS-CoV-2 NSP3 Mac1 [3]; Ki*** [µM]): 1.5 µM

O=C(Nc1ccc(C(=O)N[C@H]2c3ccccc3CC[C@H]2C(=O)O)cc1)NC1CC1 [Z8539_0030, 8539_0030]
IC50 (SARS-CoV-2 NSP3 Mac1 [4]): 5.9 µM
DSF max dTma (SARS-CoV-2 NSP3 Mac1 [5]): 4.92 °C

O=C1CCCN1Nc1ncnc2[nH]c3cc(F)ccc3c12 [LRH-0003]
binding / activity against MacroD2 (MacroD2; compound at 160 µM): neither neutral compounds LRH-0003 and LRH-0008 had measurable binding
Papp ([6]; apical to basal): 13.8 ×10⁻⁶ cm/s
Papp ([6]; basal to apical): 24.3 ×10⁻⁶ cm/s
binding / activity against TARG1 (TARG1): neither neutral compounds LRH-0003 and LRH-0008 had measurable binding

O=C(NC1c2cccc(O)c2CC1C(=O)O)c1cnc(NC2CCOCC2)cn1 (stereo not shown) [Z8539_0007, 8539_0007]
IC50 (SARS-CoV-2 NSP3 Mac1 [4]): 6.4 µM
DSF max dTma (SARS-CoV-2 NSP3 Mac1 [5]): 3.42 °C

O=C(c1cn[nH]c(=O)c1)N1CCC(CF)(C(=O)O)C1 (stereo not shown) [R8407, REAL250001448407]
DSF max dTma (SARS-CoV-2 NSP3 Mac1 [8]): 0 degC

O=C(Nc1ccc(C(=O)NC2c3ccccc3CC2C(=O)O)cc1)NC1CC1 (stereo not shown) [Z8539_0029, 8539_0029]
IC50 (SARS-CoV-2 NSP3 Mac1 [4]): 4.8 µM
DSF max dTma (SARS-CoV-2 NSP3 Mac1 [5]): 3.66 °C

Nc1ncnc2c1ncn2Cc1cccc(C(F)(F)F)c1 [Z0893, ZINC000110510893]
DSF max dTma (SARS-CoV-2 NSP3 Mac1 [8]): 0.5 degC
